The values that follow come from publication PMC7217877, “N-AS-triggered SPMs are direct regulators of microglia in a model of Alzheimer’s disease” (Nature Communications, 2020).

The IC50 is the concentration needed to halve the response being measured. A high value points to weaker potency.

Values joined by “and” are separate entries in the source; they are usually repeats but may differ in a detail not shown here. Equal values may be shown once.

For one data set, the system named is microglia. The data set is described as follows: immunofluorescence of ac-S565 and COX2 in primary cells. Type of data set: cell-based, C57BL/6 mice. The conditions noted are these: Ab 10mM, replicates. How it is done: (§1) To confirm the generation and roles of N-AS in neurons, cells from E18 C57BL/6 mice were prepared as previously described. Cortices were dissected and then dissociated followed by incubation in papain (Worthington) at 37 °C for 15 min. Neurons were plated on poly-L-lysine-coated coverslips with neuronal culture medium, serum-free Neurobasal medium (Gibco) containing 2% B27 supplements (Gibco), 1 mM Glutamax supplement (Gibco), and 100 U ml^−1 streptomycin/ 100 U ml^−1 penicillin (Gibco) at 37 °C in a humidified atmosphere of 5% CO2. Aβ 1–42 (10 μM, 24 h, Invitrogen, 03112) was exposed to neurons and the cells were analyzed for the generation and roles of N-AS. Primary astrocyte cultures were prepared from C57BL/6 mice as described previously. […] The human microglia treated with Aβ 1–42 and/or zileuton was incubated with N-AS (2.5 μM, 2 h, Sigma-Aldrich, 01912), and were analyzed for the generation and roles of N-AS.
(§2) Thioflavin S (Sigma-Aldrich) staining was carried out according to previously described procedures. […] The sections were analyzed with a laser-scanning confocal microscope (FV3000; Olympus) or with a BX51 microscope (Olympus). MetaMorph software (Molecular Devices) was used to quantification. Three-dimensional reconstruction of microglia was recorded and analyzed using IMARIS software (Bitplane)[11]. […]

Another data set concerns astrocyte. The description is as above. Type of data set: cell-based, C57BL/6 mice. The conditions noted are these: Ab 10mM, replicates. The method, then: as §1, §2
Data set [1] can be described thus: solubility (stated in discussion). The data set is classed as physicochemical.
In another data set the target is T1, CYP 2B6 (Homo sapiens, UniProt P20813).
T1 construct: from tissue; host or cells: human liver microsomes
T1 sequence (P20813 whole entry): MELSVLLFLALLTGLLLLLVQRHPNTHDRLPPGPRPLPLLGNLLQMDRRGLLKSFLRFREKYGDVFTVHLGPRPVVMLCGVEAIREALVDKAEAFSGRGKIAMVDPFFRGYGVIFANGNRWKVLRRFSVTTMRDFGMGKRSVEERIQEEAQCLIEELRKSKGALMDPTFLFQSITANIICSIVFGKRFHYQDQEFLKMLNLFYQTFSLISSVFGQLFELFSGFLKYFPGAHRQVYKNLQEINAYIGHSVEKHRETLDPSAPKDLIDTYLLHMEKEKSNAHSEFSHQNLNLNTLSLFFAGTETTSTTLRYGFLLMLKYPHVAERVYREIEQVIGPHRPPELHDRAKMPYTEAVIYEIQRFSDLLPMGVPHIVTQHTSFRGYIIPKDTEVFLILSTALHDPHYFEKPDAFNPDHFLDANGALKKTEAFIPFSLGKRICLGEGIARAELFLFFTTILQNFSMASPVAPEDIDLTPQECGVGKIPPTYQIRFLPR
Briefly: cytochrome P450 inhibition in human liver microsomes. Type of data set: in vitro ADME. How it is done:
(§3) A 10 μl aliquot of this solution was then diluted using 90 μl of 100 mM potassium phosphate buffer (pH 7.4). Probe substrate cocktail solutions for seven major cytochrome P450 isozymes (phenacetin (100 μM for 1A2), bupropion (50 μM for 2B6), diclofenac (20 μM for 2C9), mephenytoin (100 μM for 2C19), dextromethorphan (5 μM for 2D6), chlorzoxazone (50 μM for 2E1), and midazolam (5 μM for 3A4)) were prepared with phosphate buffer. […] Reactions were stopped at 15 min by the addition of 200 μl cold acetonitrile (containing propranolol as internal standard at 20 ng ml^−1) and centrifuged at 17,968×g for 10 min. A 2 μl aliquot of the supernatant was injected into the LC-MS/MS system. The ratio of peak area of test compound /internal standard was used to determine the % metabolic activity of probe substrate according to the concentrations of N-AS added.

The target in a further data set is T2, CYP 2E1 (Homo sapiens, UniProt P05181).
T2 construct: from tissue; host or cells: human liver microsomes
T2 sequence (P05181 whole entry): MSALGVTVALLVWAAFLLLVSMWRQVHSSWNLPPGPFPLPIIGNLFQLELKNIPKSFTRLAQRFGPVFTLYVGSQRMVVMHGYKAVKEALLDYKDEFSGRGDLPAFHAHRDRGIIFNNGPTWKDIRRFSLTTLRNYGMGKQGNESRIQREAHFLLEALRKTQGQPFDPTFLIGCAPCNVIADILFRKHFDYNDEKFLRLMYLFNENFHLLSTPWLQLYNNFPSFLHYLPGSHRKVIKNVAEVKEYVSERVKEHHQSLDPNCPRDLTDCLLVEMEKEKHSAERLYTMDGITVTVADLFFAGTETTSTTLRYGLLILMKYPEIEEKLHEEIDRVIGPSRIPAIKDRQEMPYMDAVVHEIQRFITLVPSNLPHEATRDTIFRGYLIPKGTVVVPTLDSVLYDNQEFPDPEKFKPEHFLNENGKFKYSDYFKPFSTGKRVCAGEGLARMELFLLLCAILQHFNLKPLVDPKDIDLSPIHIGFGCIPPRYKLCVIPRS
The data set is described as above. The data set is classed as in vitro ADME. How it is done:
as §3

A further data set has as its target T3, CYP 3A4 (Homo sapiens, UniProt P08684).
T3 construct: from tissue; host or cells: human liver microsomes
Described as above. The data set is classed as in vitro ADME. How it is done:
as §3

Another data set addresses T4, CYP 2C19 (Homo sapiens, UniProt P33261).
T4 construct: from tissue; host or cells: human liver microsomes
Described as above. Type of data set: in vitro ADME. The method, then:
as §3

In another data set the target is T5, CYP 2C9 (Homo sapiens, UniProt P11712).
T5 construct: from tissue; host or cells: human liver microsomes
T5 sequence (P11712 whole entry): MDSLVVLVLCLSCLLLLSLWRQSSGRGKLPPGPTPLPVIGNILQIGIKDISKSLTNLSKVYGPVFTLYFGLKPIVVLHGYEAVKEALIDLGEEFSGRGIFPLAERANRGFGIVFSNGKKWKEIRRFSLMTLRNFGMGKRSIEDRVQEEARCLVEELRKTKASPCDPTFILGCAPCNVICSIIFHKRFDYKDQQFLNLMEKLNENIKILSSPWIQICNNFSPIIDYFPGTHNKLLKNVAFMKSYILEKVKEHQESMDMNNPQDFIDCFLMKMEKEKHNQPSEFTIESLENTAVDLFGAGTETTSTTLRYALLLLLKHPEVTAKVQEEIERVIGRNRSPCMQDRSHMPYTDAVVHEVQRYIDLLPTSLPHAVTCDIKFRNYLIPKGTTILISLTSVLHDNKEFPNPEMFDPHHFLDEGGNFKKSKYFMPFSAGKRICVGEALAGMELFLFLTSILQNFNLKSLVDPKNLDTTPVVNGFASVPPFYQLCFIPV
The description is as above. Type of data set: in vitro ADME. How it is done:
as §3

Another data set has as its target T6, CYP 2D6 (Homo sapiens, UniProt P10635).
T6 construct: from tissue; host or cells: human liver microsomes
Described as above. The data set is classed as in vitro ADME. The method, then:
as §3

The target of another data set is T7, CYP 1A2 (Homo sapiens, UniProt P05177).
T7 construct: from tissue; host or cells: human liver microsomes
T7 sequence (P05177 whole entry): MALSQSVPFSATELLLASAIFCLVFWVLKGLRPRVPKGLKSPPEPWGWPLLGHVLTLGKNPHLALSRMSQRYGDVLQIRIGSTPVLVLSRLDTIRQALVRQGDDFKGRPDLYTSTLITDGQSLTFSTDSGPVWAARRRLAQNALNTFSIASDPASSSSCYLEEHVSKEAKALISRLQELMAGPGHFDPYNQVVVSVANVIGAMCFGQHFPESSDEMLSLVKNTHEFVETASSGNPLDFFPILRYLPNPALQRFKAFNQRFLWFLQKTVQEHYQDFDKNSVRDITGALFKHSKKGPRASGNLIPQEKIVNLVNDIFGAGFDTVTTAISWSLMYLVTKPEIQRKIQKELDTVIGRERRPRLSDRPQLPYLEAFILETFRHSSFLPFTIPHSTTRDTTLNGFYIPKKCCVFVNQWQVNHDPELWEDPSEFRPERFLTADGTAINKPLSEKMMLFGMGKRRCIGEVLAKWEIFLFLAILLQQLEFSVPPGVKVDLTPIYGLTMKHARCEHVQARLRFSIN
The data set is described as above. The data set is classed as in vitro ADME. The method, then: as §3

T6 sequence (P10635 whole entry): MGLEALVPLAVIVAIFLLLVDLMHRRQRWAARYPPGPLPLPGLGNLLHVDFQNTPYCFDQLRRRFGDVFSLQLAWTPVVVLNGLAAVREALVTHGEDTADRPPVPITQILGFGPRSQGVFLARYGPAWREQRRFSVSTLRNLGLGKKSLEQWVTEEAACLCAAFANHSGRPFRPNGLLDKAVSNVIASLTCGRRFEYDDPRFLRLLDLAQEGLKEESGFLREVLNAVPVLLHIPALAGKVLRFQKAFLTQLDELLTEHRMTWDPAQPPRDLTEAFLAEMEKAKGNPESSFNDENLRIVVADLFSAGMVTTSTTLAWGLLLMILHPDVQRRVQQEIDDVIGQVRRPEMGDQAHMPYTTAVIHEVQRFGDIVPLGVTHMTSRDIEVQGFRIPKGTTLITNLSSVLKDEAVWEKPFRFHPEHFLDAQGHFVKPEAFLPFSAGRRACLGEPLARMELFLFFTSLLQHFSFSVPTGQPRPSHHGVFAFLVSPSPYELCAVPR
T3 sequence (P08684 whole entry): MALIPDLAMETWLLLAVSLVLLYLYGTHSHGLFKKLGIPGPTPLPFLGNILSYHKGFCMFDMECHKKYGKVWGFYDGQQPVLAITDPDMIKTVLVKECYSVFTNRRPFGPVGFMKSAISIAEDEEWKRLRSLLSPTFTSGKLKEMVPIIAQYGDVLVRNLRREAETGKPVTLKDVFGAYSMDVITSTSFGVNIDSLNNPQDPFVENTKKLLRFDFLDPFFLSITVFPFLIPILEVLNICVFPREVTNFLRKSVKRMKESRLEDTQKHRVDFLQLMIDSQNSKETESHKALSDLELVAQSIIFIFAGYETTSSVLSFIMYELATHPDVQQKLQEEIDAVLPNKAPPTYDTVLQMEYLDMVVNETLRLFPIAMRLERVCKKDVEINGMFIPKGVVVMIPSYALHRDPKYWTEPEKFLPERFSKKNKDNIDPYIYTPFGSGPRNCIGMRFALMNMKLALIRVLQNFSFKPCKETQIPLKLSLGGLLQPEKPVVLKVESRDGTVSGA
T4 sequence (P33261 whole entry): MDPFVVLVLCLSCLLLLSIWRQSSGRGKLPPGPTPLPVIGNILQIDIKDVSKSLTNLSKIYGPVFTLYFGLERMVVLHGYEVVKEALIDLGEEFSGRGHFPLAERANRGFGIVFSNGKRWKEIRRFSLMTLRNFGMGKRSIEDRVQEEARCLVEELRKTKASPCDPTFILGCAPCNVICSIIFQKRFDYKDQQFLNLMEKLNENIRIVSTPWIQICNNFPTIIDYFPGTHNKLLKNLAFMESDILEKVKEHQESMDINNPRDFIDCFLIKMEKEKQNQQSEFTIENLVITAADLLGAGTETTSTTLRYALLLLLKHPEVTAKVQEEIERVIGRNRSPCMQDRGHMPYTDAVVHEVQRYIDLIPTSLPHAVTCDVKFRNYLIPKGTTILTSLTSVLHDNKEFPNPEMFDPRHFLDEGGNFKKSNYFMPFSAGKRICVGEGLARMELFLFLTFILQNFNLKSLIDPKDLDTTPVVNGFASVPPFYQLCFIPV

Regarding “Ab: Aβ 1–42 (Invitrogen, 03112) used to induce an AD environment in cells”, the “ac-S565 with COX2, immunofluorescence quantification (Fig 3c)” value with microglia was 0.1091 and 0.1473 and 0.02354 and 0.07315 and 0.06621 and 0.05168; with astrocyte, 0.03307 and 0.0783 and 0.03875 and 0.05053 and 0.0718 and 0.07636.
Regarding `CCCCCCCCCCCCC/C=C/[C@@H](O)[C@H](CO)NC(C)=O` [N-AS, N-((2S,3R,E)-1,3-Dihydroxyoctadec-4-en-2-yl)acetamide], the “solubility, in words” value in data set [1] was “poor solubility”. The IC50 on CYP 2B6, at CYP 2E1, at CYP 3A4, on CYP 2C19, against CYP 2C9 and against CYP 2D6 was above 10 µM each time. Moreover, the IC50 against CYP 1A2 is above 10 µM. In addition, the activity at 15 min, 25 µM came out at 92.7% on CYP 2B6 (human, liver microsomes, pH 7.4, probe bupropion, N-AS 25 µM, read-out: % of control at 25 µM); 84% at CYP 2E1 (human, liver microsomes, pH 7.4, probe chlorzoxazone, N-AS 25 µM, read-out: % of control at 25 µM); 114% at CYP 3A4 (human, liver microsomes, pH 7.4, probe midazolam, N-AS 25 µM, read-out: % of control at 25 µM); 79.6% on CYP 2C19 (human, liver microsomes, pH 7.4, probe mephenytoin, N-AS 25 µM, read-out: % of control at 25 µM); 95.5% on CYP 2C9 (human, liver microsomes, pH 7.4, probe diclofenac, N-AS 25 µM, read-out: % of control at 25 µM); 104% at CYP 2D6 (human, liver microsomes, pH 7.4, probe dextromethorphan, N-AS 25 µM, read-out: % of control at 25 µM). Besides, the activity at 15 min, 25 µM at CYP 1A2 (human, liver microsomes, pH 7.4, probe phenacetin, N-AS 25 µM, read-out: % of control at 25 µM) is 94.6%.
